Results: ChEMBL document CHEMBL1208673, “CoMFA and CoMSIA 3D-QSAR studies on quionolone caroxylic acid derivatives inhibitors of HIV-1 integrase” (Eur J Med Chem, 2010)

Target: Human immunodeficiency virus type 1 integrase (Human immunodeficiency virus 1, UniProt Q7ZJM1)
Assay: Inhibition of HIV-1 integrase

Chain of Human immunodeficiency virus type 1 integrase (Q7ZJM1 whole entry): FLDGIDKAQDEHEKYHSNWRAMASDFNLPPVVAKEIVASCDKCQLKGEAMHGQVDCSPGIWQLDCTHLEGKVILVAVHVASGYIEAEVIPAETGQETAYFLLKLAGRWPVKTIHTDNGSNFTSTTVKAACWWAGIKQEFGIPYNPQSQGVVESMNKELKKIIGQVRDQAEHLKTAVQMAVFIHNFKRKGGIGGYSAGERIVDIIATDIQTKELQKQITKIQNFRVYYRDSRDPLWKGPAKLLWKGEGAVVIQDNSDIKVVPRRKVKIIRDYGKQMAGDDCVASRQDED

| IC50 [µM] | Compound |
| --- | --- |
| 0.0692 | O=C(O)c1c[nH]c2ccc(Cc3cccc(Cl)c3Cl)cc2c1=O |
| 0.00891 | COc1cc2c(cc1Cc1cccc(Cl)c1F)c(=O)c(C(=O)O)cn2CCO |
| 0.0316 | O=C(O)Cn1cc(C(=O)O)c(=O)c2cc(Cc3cccc(Cl)c3Cl)ccc21 |
